Assay results taken from ChEMBL document CHEMBL1201862, “PubChem BioAssay data set” (2004).
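48-hour exposure; five concentrations; linearly interpolated endpoints. At the GI50, growth is halved.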 Calls of active or inactive are those of the source. Cut-off read from the data, not from the text of the source: active = GI50 up to about 1.1 µM and inactive = higher.

Assays:
Test in all cases: DTP human tumour cell line panel, 48 h
786-0 = system: 786-0
A498 = system: A498
A549 = system: A549
ACHN = system: ACHN
BT-549 = system: BT-549
CAKI-1 = system: CAKI-1
CCRF-CEM = system: CCRF-CEM
COLO 205 = system: COLO 205
DU-145 = system: DU-145
EKVX = system: EKVX
HCC 2998 = system: HCC 2998
HCT-116 = system: HCT-116
HCT-15 = system: HCT-15
HOP-62 = system: HOP-62
HOP-92 = system: HOP-92
HT-29 = system: HT-29
Hs-578T = system: Hs-578T
IGROV-1 = system: IGROV-1
KM12 = system: KM12
LOX IMVI = system: LOX IMVI
M14 = system: M14
MCF7 = system: MCF7
MDA-MB-231 = system: MDA-MB-231
MDA-MB-435 = system: MDA-MB-435
MDA-N = system: MDA-N
MOLT-4 = system: MOLT-4
Malme-3M = system: Malme-3M
NCI-H226 = system: NCI-H226
NCI-H23 = system: NCI-H23
NCI-H460 = system: NCI-H460
NCI-H522 = system: NCI-H522
NCI/ADR-RES = system: NCI/ADR-RES
OVCAR-3 = system: OVCAR-3
OVCAR-4 = system: OVCAR-4
OVCAR-5 = system: OVCAR-5
OVCAR-8 = system: OVCAR-8
PC-3 = system: PC-3
RXF 393 = system: RXF 393
SF-268 = system: SF-268
SF-295 = system: SF-295
SF-539 = system: SF-539
SK-MEL-28 = system: SK-MEL-28
SK-MEL-2 = system: SK-MEL-2
SK-MEL-5 = system: SK-MEL-5
SK-OV-3 = system: SK-OV-3
SN12C = system: SN12C
SNB-19 = system: SNB-19
SNB-75 = system: SNB-75
SR = system: SR
SW-620 = system: SW-620
T47D = system: T47D
TK-10 = system: TK-10
U-251 = system: U-251
UACC-257 = system: UACC-257
UACC-62 = system: UACC-62
UO-31 = system: UO-31
K562 = system: K562
RPMI-8226 = system: RPMI-8226
HL-60 = system: HL-60

O=C(Cc1nc2ccc([N+](=O)[O-])cc2nc1O)C(=O)Nc1cc(Cl)c(Cl)cc1Cl
GI50 (786-0): > 100 µM (inactive) | GI50 (A498): > 100 µM (inactive) | GI50 (A549): > 100 µM (inactive) | GI50 (ACHN): > 100 µM (inactive) | GI50 (BT-549): > 100 µM (inactive) | GI50 (CAKI-1): > 100 µM (inactive) | GI50 (CCRF-CEM): > 100 µM (inactive) | GI50 (COLO 205): > 100 µM (inactive) | GI50 (DU-145): > 100 µM (inactive) | GI50 (EKVX): 54.3 µM (inactive) | GI50 (HCC 2998): > 100 µM (inactive) | GI50 (HCT-116): > 100 µM (inactive) | GI50 (HCT-15): > 100 µM | GI50 (HOP-62): > 100 µM (inactive) | GI50 (HOP-92): > 100 µM (inactive) | GI50 (HT-29): > 100 µM (inactive) | GI50 (Hs-578T): > 100 µM (inactive) | GI50 (IGROV-1): > 100 µM (inactive) | GI50 (KM12): 65.6 µM (inactive) | GI50 (LOX IMVI): 69 µM (inactive) | GI50 (M14): > 100 µM (inactive) | GI50 (MCF7): > 100 µM (inactive) | GI50 (MDA-MB-231): > 100 µM (inactive) | GI50 (MDA-MB-435): > 100 µM (inactive) | GI50 (MDA-N): > 100 µM (inactive) | GI50 (MOLT-4): 51.4 µM (inactive) | GI50 (Malme-3M): > 100 µM (inactive) | GI50 (NCI-H226): > 100 µM (inactive) | GI50 (NCI-H23): > 100 µM (inactive) | GI50 (NCI-H460): > 100 µM (inactive) | GI50 (NCI-H522): > 100 µM (inactive) | GI50 (NCI/ADR-RES): > 100 µM (inactive) | GI50 (OVCAR-3): > 100 µM (inactive) | GI50 (OVCAR-4): > 100 µM (inactive) | GI50 (OVCAR-5): > 100 µM (inactive) | GI50 (OVCAR-8): > 100 µM (inactive) | GI50 (PC-3): > 100 µM (inactive) | GI50 (RXF 393): > 100 µM (inactive) | GI50 (SF-268): > 100 µM (inactive) | GI50 (SF-295): > 100 µM (inactive) | GI50 (SF-539): > 100 µM (inactive) | GI50 (SK-MEL-28): > 100 µM (inactive) | GI50 (SK-MEL-2): > 100 µM (inactive) | GI50 (SK-MEL-5): > 100 µM (inactive) | GI50 (SK-OV-3): 71.3 µM (inactive) | GI50 (SN12C): > 100 µM (inactive) | GI50 (SNB-19): > 100 µM (inactive) | GI50 (SNB-75): > 100 µM (inactive) | GI50 (SR): 41.8 µM (inactive) | GI50 (SW-620): > 100 µM (inactive) | GI50 (T47D): > 100 µM (inactive) | GI50 (TK-10): > 100 µM (inactive) | GI50 (U-251): > 100 µM (inactive) | GI50 (UACC-257): > 100 µM (inactive) | GI50 (UACC-62): > 100 µM (inactive) | GI50 (UO-31): > 100 µM (inactive)

O=C(O)c1ccc2c(O)c(O)ccc2c1
GI50 (786-0): 18.1 µM (inactive) | GI50 (A498): 44.4 µM (inactive) | GI50 (A549): 28 µM (inactive) | GI50 (ACHN): 15.8 µM (inactive) | GI50 (BT-549): 21.6 µM (inactive) | GI50 (CAKI-1): 21.6 µM (inactive) | GI50 (COLO 205): 26.2 µM (inactive) | GI50 (DU-145): 39.8 µM (inactive) | GI50 (EKVX): 20.8 µM (inactive) | GI50 (HCC 2998): 33.3 µM (inactive) | GI50 (HCT-116): 25.9 µM (inactive) | GI50 (HCT-15): 21.6 µM | GI50 (HOP-62): 20.7 µM (inactive) | GI50 (HOP-92): 32.8 µM (inactive) | GI50 (HT-29): 6.82 µM (inactive) | GI50 (Hs-578T): 27.2 µM (inactive) | GI50 (IGROV-1): 19.7 µM (inactive) | GI50 (K562): 7.8 µM (inactive) | GI50 (KM12): 16.4 µM (inactive) | GI50 (LOX IMVI): 5.38 µM (inactive) | GI50 (M14): 23.5 µM (inactive) | GI50 (MCF7): 7.23 µM (inactive) | GI50 (MDA-MB-231): 29 µM (inactive) | GI50 (MDA-MB-435): 14.1 µM (inactive) | GI50 (MDA-N): 18.5 µM (inactive) | GI50 (MOLT-4): 6.75 µM (inactive) | GI50 (Malme-3M): 38.9 µM (inactive) | GI50 (NCI-H226): 18.7 µM (inactive) | GI50 (NCI-H23): 22 µM (inactive) | GI50 (NCI-H522): 16.9 µM (inactive) | GI50 (NCI/ADR-RES): 19.5 µM (inactive) | GI50 (OVCAR-3): 18.8 µM (inactive) | GI50 (OVCAR-4): 21.5 µM (inactive) | GI50 (OVCAR-5): 26.3 µM (inactive) | GI50 (OVCAR-8): 20 µM (inactive) | GI50 (PC-3): 33.7 µM (inactive) | GI50 (RPMI-8226): 15.4 µM (inactive) | GI50 (RXF 393): 20.9 µM (inactive) | GI50 (SF-268): 8.47 µM (inactive) | GI50 (SF-295): 15.2 µM (inactive) | GI50 (SF-539): 4.81 µM (inactive) | GI50 (SK-MEL-28): > 100 µM (inactive) | GI50 (SK-MEL-2): 26.8 µM (inactive) | GI50 (SK-MEL-5): 17.3 µM (inactive) | GI50 (SK-OV-3): > 43.1 µM (inactive) | GI50 (SN12C): 8.61 µM (inactive) | GI50 (SNB-19): 18.8 µM (inactive) | GI50 (SNB-75): 10.4 µM (inactive) | GI50 (SR): 3.17 µM (inactive) | GI50 (SW-620): 26.5 µM (inactive) | GI50 (T47D): 45.4 µM (inactive) | GI50 (TK-10): 13.8 µM (inactive) | GI50 (U-251): 19.9 µM (inactive) | GI50 (UACC-257): 21.1 µM (inactive) | GI50 (UACC-62): > 10 µM (inactive) | GI50 (UO-31): 19.5 µM (inactive)

CSc1ncc2c(n1)-c1ccccc1OC2N1CCCCC1 (configuration not stated)
GI50 (786-0): 29.4 µM (inactive) | GI50 (A498): 22.2 µM (inactive) | GI50 (A549): 39.4 µM (inactive) | GI50 (ACHN): 37.1 µM (inactive) | GI50 (BT-549): 24.3 µM (inactive) | GI50 (CAKI-1): 21.7 µM (inactive) | GI50 (CCRF-CEM): 20.6 µM (inactive) | GI50 (COLO 205): 44.8 µM (inactive) | GI50 (DU-145): 34.4 µM (inactive) | GI50 (EKVX): 35.2 µM (inactive) | GI50 (HCT-116): 31 µM (inactive) | GI50 (HCT-15): 28.9 µM | GI50 (HL-60): 19.7 µM (inactive) | GI50 (HOP-92): 25 µM (inactive) | GI50 (HT-29): 25.4 µM (inactive) | GI50 (Hs-578T): 26.9 µM (inactive) | GI50 (IGROV-1): 40.1 µM (inactive) | GI50 (K562): 29.5 µM (inactive) | GI50 (KM12): 38.5 µM (inactive) | GI50 (LOX IMVI): 21.1 µM (inactive) | GI50 (M14): 49.3 µM (inactive) | GI50 (MCF7): 23.8 µM (inactive) | GI50 (MDA-MB-231): 23 µM (inactive) | GI50 (MDA-MB-435): 31.1 µM (inactive) | GI50 (MDA-N): 38.1 µM (inactive) | GI50 (MOLT-4): 20.2 µM (inactive) | GI50 (NCI-H226): 32 µM (inactive) | GI50 (NCI-H23): 41.7 µM (inactive) | GI50 (NCI-H460): 30.4 µM (inactive) | GI50 (NCI-H522): 18.9 µM (inactive) | GI50 (NCI/ADR-RES): 40.6 µM (inactive) | GI50 (OVCAR-3): 38.5 µM (inactive) | GI50 (OVCAR-4): 28.8 µM (inactive) | GI50 (OVCAR-5): 42 µM (inactive) | GI50 (OVCAR-8): 63.8 µM (inactive) | GI50 (PC-3): 48.2 µM (inactive) | GI50 (RPMI-8226): 24.4 µM (inactive) | GI50 (RXF 393): 32.1 µM (inactive) | GI50 (SF-268): 45 µM (inactive) | GI50 (SF-295): 38.5 µM (inactive) | GI50 (SF-539): 51.9 µM (inactive) | GI50 (SK-MEL-2): 25.9 µM (inactive) | GI50 (SK-MEL-5): 20.3 µM (inactive) | GI50 (SK-OV-3): > 100 µM (inactive) | GI50 (SN12C): 29.8 µM (inactive) | GI50 (SNB-19): 68.7 µM (inactive) | GI50 (SNB-75): 66.5 µM (inactive) | GI50 (SR): 18 µM (inactive) | GI50 (SW-620): 40.5 µM (inactive) | GI50 (T47D): 27.3 µM (inactive) | GI50 (TK-10): 27.3 µM (inactive) | GI50 (U-251): 39 µM (inactive) | GI50 (UACC-257): 34.6 µM (inactive) | GI50 (UACC-62): 22.4 µM (inactive) | GI50 (UO-31): 32.5 µM (inactive)
